Literature values in US6569457B2, “Enteric coated pharmaceutical tablet and method of manufacturing” (priority 1998, dated 2003).

O=c1[nH]cnc2c1ncn2C1CCC(CO)O1 (stereo not shown) [ddl, 2′,3′-dideoxyinosine]
degradation at acidic pH: degrades rapidly
